Experimental findings from US7825256B2, “Inducible nitric oxide synthase dimerization inhibitors” (Kalypsys, Inc., priority 2004, dated 2010) are described below.

Where a name gives a salt, the structure may show the parent alone.

In the first assay the test system is rat. Briefly: Capsaicin test (topical capsaicin allodynia). In kind it is in vivo. To be noted: at 0.5 hr after capsaicin injection. An excerpt:
Subcutaneous injection of dilute capsaicin into the rat hind paw produces transient but pronounced hyperalgesia, allodynia and pain. This effect may be mitigated by pretreatment with a suitable agent, such as a topical anaesthetic or analgesic, and the extent of this mitigation quantified by evaluation of pain-related behaviors in response to noxious or innocuous stimuli as described above; rats pretreated with a known analgesic display fewer pain and allodynia related behaviors than controls. Compounds may be evaluated for their efficacy as potential analgesics in this manner as well.
Male Lewis rats weighing between 180 and 250 grams are used. The right hind paw is dipped into vehicle (100% acetone) or compound in vehicle for 30 seconds and then allowed to air-dry for 30 sec. To prevent the animal from licking the compound off the paw, the paw is wiped twice with a wet paper towel. At 15 min after application of vehicle or compound, 0.1 mg in 10 μL capsaicin is injected into right hind paw. Measurement of allodynia is performed 0.5 to 1 hour after capsaicin injection.
One procedure for quantifying allodynia measures the rat behavioral response to presentation of von Frey filaments of increasing diameter. Each rat is placed in a small, clear cage on an elevated screen. Beginning with 4.31, the von Frey hair is presented perpendicularly to the right mid-plantar hind paw with sufficient force to cause slight buckling, for 6-8 seconds. If presentation lifts the hind paw it is disregarded, as it changes the nature of the stimulus. A positive response is noted if the paw is sharply withdrawn upon onset or offset of stimulus. Ambulation is considered an ambiguous response and the presentation is repeated. Stimuli are presented in a consecutive fashion. A positive response would call for the presentation of the immediately weaker weight filament next; likewise, no response would call for the immediately stronger. Presentations continue until a series of six consecutive responses from the first change is logged. The next rat is then tested. This procedure is standard in the art for the measurement of allodynia, but any other method known in the art which provides adequate sensitivity and reproducibility may be substituted.
On to `CN(CCCNCc1ccccc1)c1nc(-n2ccnc2)ns1` [Example 12, N′-Benzyl-N-(3-imidazol-1-yl-[1,2,4]thiadiazol-5-yl)-N-methyl-propane-1,3-diamine], for which the “Topical Capsaicin Allodynia” value was “− at 0.5 hr ((−) = <15% inhibition)”.
Turning to `c1csc(CN(CCCNCc2ccc3c(c2)OCO3)c2nc(-n3ccnc3)ns2)c1` [Example 50, N′-Benzo[1,3]dioxol-5-ylmethyl-N-(3-imidazol-1-yl-[1,2,4]thiadiazol-5-yl)-N-thiophen-2-ylmethyl-propane-1,3-diamine], the “Topical Capsaicin Allodynia” value was “+ at 0.5 hr ((+) = >15% inhibition)”.

The assay is the same for the next values; noted with them: at 1 hr after capsaicin injection.
For `CN(CCCNCc1ccccc1)c1nc(-n2ccnc2)ns1` [Example 12, N′-Benzyl-N-(3-imidazol-1-yl-[1,2,4]thiadiazol-5-yl)-N-methyl-propane-1,3-diamine], the “Topical Capsaicin Allodynia” value is given as “− at 1 hr ((−) = <15% inhibition)”.
Turning to `c1csc(CN(CCCNCc2ccc3c(c2)OCO3)c2nc(-n3ccnc3)ns2)c1` [Example 50, N′-Benzo[1,3]dioxol-5-ylmethyl-N-(3-imidazol-1-yl-[1,2,4]thiadiazol-5-yl)-N-thiophen-2-ylmethyl-propane-1,3-diamine], the “Topical Capsaicin Allodynia” value is given as “+ at 1 hr ((+) = >15% inhibition)”.

For the next assay, the target named is T1, hiNOS (Homo sapiens, UniProt P35228).
T1 construct: expressed in transfected cells; host or cells: HEK293
As to the kind of experiment: DAN assay, hiNOS expressed in transiently transfected HEK293 cells. The class given is cell-based. The following applies: HEK293 cells transiently transfected with hiNOS. The gist of the method: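 Human iNOS, nNOS or eNOS transiently expressed in HEK293 cells, with nNOS and eNOS needing added cofactors for activity. NO production is read as nitrite by fluorometry: 2,3-diaminonaphthalene forms fluorescent […], detecting 10 nM to 10 μM nitrite.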
Regarding `CN(CCCNCc1ccccc1)c1nc(-n2ccnc2)ns1` [Example 12, N′-Benzyl-N-(3-imidazol-1-yl-[1,2,4]thiadiazol-5-yl)-N-methyl-propane-1,3-diamine], the EC50 (usually the concentration at which the effect is half-maximal) is > 50 µM.
As for `COc1ccc(CNCCCN(C)c2nc(-n3ccnc3)ns2)c(OC)c1` [Example 17, N′-(2,4-Dimethoxy-benzyl)-N-(3-imidazol-1-yl-[1,2,4]thiadiazol-5-yl)-N-methyl-propane-1,3-diamine], the EC50 was < 1 µM.
Regarding `Cc1cc(C2CCC(=O)N2CCNCc2ccc3c(c2)OCO3)nc(-n2ccnc2)n1` (stereo not shown) [Example 138, 1-{2-[(Benzo[1,3]dioxol-5-ylmethyl)-amino]-ethyl}-5-(2-imidazol-1-yl-6-methyl-pyrimidin-4-yl)-pyrrolidin-2-one hydrochloride], the EC50 was < 1 µM.
Still for that read-out and setting: as for `CNC(=O)C(NC(=O)CNCc1ccc2c(c1)OCO2)c1cc(C)nc(-n2ccnc2)n1` (stereo not shown) [Example 42, 2-{2-[(Benzo[1,3]dioxol-5-ylmethyl)-amino]-acetylamino}-2-(2-imidazol-1-yl-6-methyl-pyrimidin-4-yl)-N-methyl-acetamide], the figure is < 1 µM; as for `Cc1cc(C(C)NCCOCc2ccc3c(c2)OCO3)nc(-n2ccnc2)n1` (stereo not shown) [Example 43, [2-(Benzo[1,3]dioxol-5-ylmethoxy)-ethyl]-[1-(2-imidazol-1-yl-6-methyl-pyrimidin-4-yl)-ethyl]-amine], < 1 µM; as for `CN(CCNCCc1ccc2c(c1)OCO2)c1nc(-n2ccnc2)ns1` [Example 127, N′-(2-Benzo[1,3]dioxol-5-yl-ethyl)-N-(3-imidazol-1-yl-[1,2,4]thiadiazol-5-yl)-N-methyl-ethane-1,2-diamine], < 1 µM.
On the same count and under the same terms, as for `Cc1cc(CNC(=O)C2CCCN2Cc2ccc(Cl)cc2)nc(-n2ccnc2)n1` (stereo not shown) [Example 113, 1-(4-Chloro-benzyl)-pyrrolidine-2-carboxylic acid (2-imidazol-1-yl-6-methyl-pyrimidin-4-ylmethyl)-amide], the figure is < 50 µM; as for `CC(NCCNCc1ccc2c(c1)OCO2)c1nc(-n2ccnc2)ns1` (stereo not shown) [Example 64, N-Benzo[1,3]dioxol-5-ylmethyl-N′-[1-(3-imidazol-1-yl-[1,2,4]thiadiazol-5-yl)-ethyl]-ethane-1,2-diamine], < 1 µM.
Take `CN(CCNCc1ccc2c(c1)OCO2)c1nc(-n2ccnc2)ns1` [Example 47, N′-Benzo[1,3]dioxol-5-ylmethyl-N-(3-imidazol-1-yl-[1,2,4]thiadiazol-5-yl)-N-methyl-ethane-1,2-diamine]: the EC50 was < 1 µM.
For the molecule `CC(NCCNCc1ccc2c(c1)OCO2)c1csc(-n2ccnc2)n1` (stereo not shown) [Example 68, N-Benzo[1,3]dioxol-5-ylmethyl-N′-[1-(2-imidazol-1-yl-thiazol-4-yl)-ethyl]-ethane-1,2-diamine], the EC50 was < 1 µM.
Still for that read-out and setting: the figure for `O=C(NCCc1ccc2c(c1)OCCO2)[C@H]1C[C@H](O)CN1c1nc(-n2ccnc2)ns1` [Example 126, (2R,4S)-4-Hydroxy-1-(3-imidazol-1-yl-[1,2,4]thiadiazol-5-yl)-pyrrolidine-2-carboxylic acid [2-(2,3-dihydro-benzo[1,4]dioxin-6-yl)-ethyl]-amide] is < 1 µM; for `COc1ccc(CNCCNC(C)c2cc(C)nc(-n3ccnc3)n2)cc1O` (stereo not shown) [Example 100, 5-({2-[1-(2-Imidazol-1-yl-6-methyl-pyrimidin-4-yl)-ethylamino]-ethylamino}-methyl)-2-methoxy-phenol] it is < 50 µM; for `CN(CCCN(Cc1ccc2c(c1)OCO2)C(=O)OC(C)(C)C)c1nc(-n2cnc(I)c2)ns1` [Example 80] it is > 50 µM.
On to `Cc1cc(CNC(=O)CNCc2ccc3c(c2)OCO3)nc(-n2ccnc2)n1` [Example 14], for which the EC50 was < 1 µM.
`CN(CCCN)c1nc(-n2ccnc2)ns1` [Example 6, N-1-(3-Imidazol-1-yl-[1,2,4]thiadiazol-5-yl)-N-1-methyl-propane-1,3-diamine]: the EC50 was > 50 µM.
For `c1cn(-c2nsc(N(CCCNCc3ccc4c(c3)OCO4)Cc3nnn[nH]3)n2)cn1` [Example 61, N′-Benzo[1,3]dioxol-5-ylmethyl-N-(3-imidazol-1-yl-[1,2,4]thiadiazol-5-yl)-N-(1H-tetrazol-5-ylmethyl)-propane-1,3-diamine], the EC50 was < 1 µM.
On the same count and under the same terms, the figure for `NC(=O)C1CCC(C(=O)NCCc2ccc3c(c2)OCO3)N1c1nc(-n2ccnc2)ns1` (stereo not shown) [Example 95] is < 1 µM.
The same measure, in the same setting: as for `Cc1cc(CNC(=O)C2CCCN2Cc2ccsc2)nc(-n2ccnc2)n1` (stereo not shown) [Example 119, 1-Thiophen-3-ylmethyl-pyrrolidine-2-carboxylic acid (2-imidazol-1-yl-6-methyl-pyrimidin-4-ylmethyl)-amide], the figure is > 50 µM; as for `Cc1cc(C(C)(C)CNCCCc2ccc3c(c2)OCO3)nc(-n2ccnc2)n1` [Example 78, (3-Benzo[1,3]dioxol-5-yl-propyl)-{2-[2-(2H-imidazol-1-yl)-6-methyl-pyrimidin-4-yl]-2-methyl-propyl}-amine hydrochloride], < 1 µM.
Same read-out and setting: as for `Cc1cc(CNC(=O)C2CCCN2Cc2ccc(OC(C)C)cc2)nc(-n2ccnc2)n1` (stereo not shown) [Example 115, 1-(4-Isopropoxy-benzyl)-pyrrolidine-2-carboxylic acid (2-imidazol-1-yl-6-methyl-pyrimidin-4-ylmethyl)-amide], the figure is > 50 µM; as for `CN(CCCNCc1ccc(F)c(F)c1)c1nc(-n2ccnc2)ns1` [Example 9, N′-(3,4-Difluro-benzyl)-N-(3-imidazol-1-yl-[1,2,4]thiadiazol-5-yl)-N-methyl-propane-1,3-diamine], > 50 µM; as for `Cc1cc(C2CCCN2CC(=O)NCc2ccc3c(c2)OCO3)nc(-n2ccnc2)n1` (stereo not shown) [Example 37, N-Benzo[1,3]dioxol-5-ylmethyl-2-[2-(2-imidazol-1-yl-6-methyl-pyrimidin-4-yl)-pyrrolidin-1-yl]-acetamide], < 1 µM.
As for `Cc1cc(C(C)(C)CCCNCc2ccc3c(c2)OCO3)nc(-n2ccnc2)n1` [Example 76, 4-(2-(1H-Imidazol-1-yl)-6-methylpyrimidin-4-yl)-N-(benzo[d][1,3]dioxol-5-ylmethyl)-4-methylpentan-1-amine], the EC50 was < 1 µM.
Still for that read-out and setting: as for `CNNC(=N)CN(CCCNCc1ccc2c(c1)OCO2)c1nc(-n2ccnc2)ns1` [Example 62, 2-[{3-[(Benzo[1,3]dioxol-5-ylmethyl)-amino]-propyl}-(3-imidazol-1-yl-[1,2,4]thiadiazol-5-yl)-amino]-acetamidine N′-methyl-hydrazide], the figure is < 1 µM; as for `Cc1cc(C(C)NCCNC(C)c2ccc3c(c2)OCO3)nc(-n2ccnc2)n1` (stereo not shown) [Example 44, N-(1-Benzo[1,3]dioxol-5-yl-ethyl)-N′-[1-(2-imidazol-1-yl-6-methyl-pyrimidin-4-yl)-ethyl]-ethane-1,2-diamine], < 1 µM.
Same read-out and setting: the figure for `CN(CCCNCc1ccc2c(c1)OCCO2)c1nc(-n2ccnc2)ns1` [Example 16, N′-(2,3-Dihydro-benzo[1,4]dioxin-6-ylmethyl)-N-(3-imidazol-1-yl-[1,2,4]thiadiazol-5-yl)-N-methyl-propane-1,3-diamine] is < 1 µM; for `Cc1cc(CNC(=O)C2CCCN2Cc2ccc3c(c2)OCO3)nc(-n2ccnc2)n1` (stereo not shown) [Example 116, 1-Benzo[1,3]dioxol-5-ylmethyl-pyrrolidine-2-carboxylic acid (2-imidazol-1-yl-6-methyl-pyrimidin-4-ylmethyl)-amide] it is > 50 µM; for `CNC(=O)C(CCCNCc1ccc2c(c1)OCO2)c1nc(-n2ccnc2)ns1` (stereo not shown) [Example 40, 5-[(Benzo[1,3]dioxol-5-ylmethyl)-amino]-2-(3-imidazol-1-yl-[1,2,4]thiadiazol-5-yl)-pentanoic acid methylamide] it is < 1 µM.
Still for that read-out and setting: as for `Cc1cc(C(C)NCCNCc2ccc3c(c2)OCCO3)nc(-n2ccnc2)n1` (stereo not shown) [Example 45, N-(2,3-Dihydro-benzo[1,4]dioxin-6-ylmethyl)-N′-[1-(2-imidazol-1-yl-6-methyl-pyrimidin-4-yl)-ethyl]-ethane-1,2-diamine], the figure is < 1 µM; as for `Cc1cc(C2CCCCN2CCN(C)Cc2ccc3c(c2)OCO3)nc(-n2ccnc2)n1` (stereo not shown) [Example 134], < 1 µM.
